Results from patent US5071957A, “Antibiotic BU-4061T” (Bristol-Myers Company, priority 1990, dated 1991).
Values after ≈ are worked out from the molar mass of the structure shown.

Key:
[1] = system: Moser (human colorectal carcinoma) cells; assay: In vitro cytotoxicity against Moser cells; format: cell-based
Experimental: (§1) B16-F10 (murine melanoma) and Moser (human colorectal carcinoma) cells were grown to the logarithmic phase in the enriched Eagle minimum essential medium supplemented with fetal calf serum (FCS, 10%) and kanamycin (60 μg/ml), while HCT-116 (human colon carcinoma) was grown in McCoy's 5A medium supplemented with FCS (10%) penicillin (100 μ/ml) and streptomycin (100 μg/ml). B16-F10, Moser and HCT-116 cells were harvested and implanted into wells of a 96-well microtiter plate with test materials at the inoculum sizes of 3×10^4, 6×10^4 and 6×10^4 cells/ml, respectively. They were incubated at 37° C. in a humidified atmosphere of 5% CO2 and 95% air for 72 hours. The cytotoxicity against tumor cells was determined colorimetrically at 540 nm after staining viable cells.

[2] = system: B16-F10 (murine melanoma) cells; assay: In vitro cytotoxicity against B16-F10 cells; format: cell-based; details: 72 hours, colorimetric at 540 nm
Experimental: as §1

B16 melanoma = assay: Antitumor activity against B16 melanoma (ip)
Experimental: (§2) To determine in vivo antitumor activity of BU-4061T, male BDF1 mice were intraperitoneally inoculated with 0.5 ml of 10% melanotic melanoma B16 brei, and female CDF1 mice were intraperitoneally inoculated with 0.4 ml of diluted ascitic fluid containing 10^6 lymphocytic leukemia P388 cells. […] Test materials were intraperitoneally administered to mice on days 1, 5 and 9 (Q4D×3) or on days 1 to 9 (QlD×9).

[3] = system: RNA synthesis in B16-F10 melanoma cells; assay: Inhibition of RNA synthesis (14C-uridine incorporation) in B16-F10 melanoma cells; format: cell-based, murine
Experimental: (§3) Inhibitory effects of BU-4061T on the macromolecule (DNA, RNA and protein) synthesis were determined in cultured B16-F10 melanoma cells. B16-F10 cells (10^5 cells/ml) were incubated with the compound at 37° C. for 4.5 hours (for DNA synthesis) or 4 hours (for RNA and protein synthesis). Labelled precursor, ^3 H-thymidine, ^14 C-uridine or ^3 H-leucine was added to the culture and further incubated for 30 minutes (for DNA) or 60 minutes (for RNA and protein). After washing with chilled 5% trichloroacetic acid solution, the radioactivity incorporated into the acid-insoluble fraction of the tumor cells was determined by a liquid scintillation counter.

P388 leukemia = assay: Antitumor activity against P388 leukemia (ip); details: Q1D × 9
Experimental: as §2

[4] = system: protein synthesis in B16-F10 melanoma cells; assay: Inhibition of protein synthesis (3H-leucine incorporation) in B16-F10 melanoma cells; format: cell-based, murine
Experimental: as §3

[5] = system: DNA synthesis in B16-F10 melanoma cells; assay: Inhibition of DNA synthesis (3H-thymidine incorporation) in B16-F10 melanoma cells; format: cell-based, murine
Experimental: as §3

[6] = system: HCT-116 (human colon carcinoma); assay: In vitro cytotoxicity against HCT-116 cells; format: cell-based; details: 72 hours, colorimetric at 540 nm
Experimental: as §1

[7] = Solubility (physico-chemical properties); format: physicochemical
From the text: BU-4061T was obtained as a white amorphous powder. […] BU-4061T gave positive response to iodine vapor, ammonium molybdate-sulfuric acid solution and Rydon-Smith reagent, but negative response to ninhydrin and anthrone reagent.

CC[C@H](C)[C@H](NC(=O)[C@H]([C@@H](C)CC)N(C)C(C)=O)C(=O)N[C@H](C(=O)N[C@@H](CC(C)C)C(=O)[C@@]1(C)CO1)[C@@H](C)O [BU-4061T]
IC50 Moser ([1]; 72 hours, colorimetric at 540 nm): 0.17 µg/mL (≈ 0.306 µM) | cytotoxicity against Moser cells (in words) ([1]; compared with B16-F10 and HCT-116 cells): weaker than that against B16-F10 and HCT-116 cells | IC50 B16-F10 [2]: 0.0047 µg/mL (≈ 0.00847 µM) | MST (median survival time) (B16 melanoma; 0.063 mg/kg/day ip, Q1D × 9): 15.5 days | T/C (B16 melanoma; 0.063 mg/kg/day ip, Q1D × 9): 119% | MST (median survival time) (B16 melanoma; 0.13 mg/kg/day ip, Q1D × 9): 16.0 days | T/C (B16 melanoma; 0.13 mg/kg/day ip, Q1D × 9): 123% | MST (median survival time) (B16 melanoma; 0.25 mg/kg/day ip, Q1D × 9): 18.0 days | MST (median survival time) (B16 melanoma; 0.25 mg/kg/day ip, Q4D × 3): 14.5 days | T/C (B16 melanoma; 0.25 mg/kg/day ip, Q4D × 3): 112% | MST (median survival time) (B16 melanoma; 0.5 mg/kg/day ip, Q1D × 9): 19.5 days | MST (median survival time) (B16 melanoma; 0.5 mg/kg/day ip, Q4D × 3): 15.5 days | T/C (B16 melanoma; 0.5 mg/kg/day ip, Q4D × 3): 119% | MST (median survival time) (B16 melanoma; 1 mg/kg/day ip, Q1D × 9): 19.0 days | MST (median survival time) (B16 melanoma; 1 mg/kg/day ip, Q4D × 3): 15.5 days | T/C (B16 melanoma; 1 mg/kg/day ip, Q4D × 3): 119% | MST (median survival time) (B16 melanoma; 2 mg/kg/day ip, Q4D × 3): 17.0 days | MST (median survival time) (B16 melanoma; 4 mg/kg/day ip, Q4D × 3): 16.5 days | antitumor activity against B16 melanoma (in words) (B16 melanoma; ip, either Q4D×3 or Q1D×9 treatment schedule): significant antitumor activities | inhibitory effect on RNA synthesis (in words) [3]: moderate inhibitory effects | IC50 RNA ([3]; 4 hours + 60 minutes 14C-uridine): 46 µg/mL | MST (median survival time) (P388 leukemia; 0.063 mg/kg/day ip): 10.5 days | T/C (P388 leukemia; 0.063 mg/kg/day ip): 105% | MST (median survival time) (P388 leukemia; 0.13 mg/kg/day ip): 11.0 days | T/C (P388 leukemia; 0.13 mg/kg/day ip): 110% | MST (median survival time) (P388 leukemia; 0.25 mg/kg/day ip): 11.5 days | T/C (P388 leukemia; 0.25 mg/kg/day ip): 115% | MST (median survival time) (P388 leukemia; 0.5 mg/kg/day ip): 13.0 days | MST (median survival time) (P388 leukemia; 1 mg/kg/day ip): 10.5 days | T/C (P388 leukemia; 1 mg/kg/day ip): 105% | inhibition of incorporation of leucine into the protein fraction (in words) ([4]; 100 μg/ml, the highest concentration tested): did not significantly inhibit | IC50 Protein ([4]; B16-F10 cells, 4 hours + 60 minutes 3H-leucine): > 100 µg/mL | inhibitory effect on DNA synthesis (in words) [5]: moderate inhibitory effects | IC50 DNA ([5]; 4.5 hours + 30 minutes 3H-thymidine): 16 µg/mL | IC50 HCT-116 [6]: 0.0067 µg/mL (≈ 0.0121 µM) | solubility in ethyl acetate ([7]; ethyl acetate): readily soluble | solubility in methanol ([7]; methanol): readily soluble | solubility in methylene chloride ([7]; methylene chloride): readily soluble | solubility in water ([7]; water): practically insoluble

CO[C@@]12[C@H](COC(N)=O)C3=C(C(=O)C(C)=C(N)C3=O)N1C[C@@H]1N[C@@H]12 [Mitomycin C, mitomycin C]
Body Wt. change on day 5 (B16 melanoma; 0.3 mg/kg/day ip, Q4D × 3): -0.3 g | MST (median survival time) (B16 melanoma; 0.3 mg/kg/day ip, Q4D × 3): 13.0 days | T/C (B16 melanoma; 0.3 mg/kg/day ip, Q4D × 3): 100% | Body Wt. change on day 5 (B16 melanoma; 1 mg/kg/day ip, Q4D × 3): -0.8 g | MST (median survival time) (B16 melanoma; 1 mg/kg/day ip, Q4D × 3): 18.0 days | Body Wt. change on day 5 (B16 melanoma; 3 mg/kg/day ip, Q4D × 3): -0.3 g | MST (median survival time) (B16 melanoma; 3 mg/kg/day ip, Q4D × 3): 28.0 days | Body Wt. change on day 4 (P388 leukemia; 0.063 mg/kg/day ip): +0.8 g | MST (median survival time) (P388 leukemia; 0.063 mg/kg/day ip): 11.0 days | T/C (P388 leukemia; 0.063 mg/kg/day ip): 110% | Body Wt. change on day 4 (P388 leukemia; 0.13 mg/kg/day ip): +1.3 g | MST (median survival time) (P388 leukemia; 0.13 mg/kg/day ip): 12.0 days | T/C (P388 leukemia; 0.13 mg/kg/day ip): 120% | Body Wt. change on day 4 (P388 leukemia; 0.25 mg/kg/day ip): +1.0 g | MST (median survival time) (P388 leukemia; 0.25 mg/kg/day ip): 13.0 days | Body Wt. change on day 4 (P388 leukemia; 0.5 mg/kg/day ip): 0.0 g | MST (median survival time) (P388 leukemia; 0.5 mg/kg/day ip): 15.5 days | Body Wt. change on day 4 (P388 leukemia; 1 mg/kg/day ip): -0.8 g | MST (median survival time) (P388 leukemia; 1 mg/kg/day ip): 17.0 days
